Experiments:
[1] = test system: TAMR cells; type: cell-based
Method: (§1) FIG. 17. […] (A) Prostate cancer (22RV1 and LNCaP) cells were treated with indicated concentrations of paclitaxel alone or in combination with STL001 for 24 hrs. (B) Tamoxifen resistance MCF-7 breast cancer cells (TAM-R) were treated with indicated concentrations of Tamoxifen alone or in combination with STL001 for 24 hrs. In all cases, total protein samples were obtained from cells immediately after treatment and analyzed for FOXM1, cleaved caspase-3 levels via immunoblotting, β-actin was used as internal loading control (n=3). (C) Percent (%) dead cells in TAM-R cells treated with indicated concentrations of Tamoxifen alone or in combination with STL001 for 24 hrs. […] (F) HCC 143 cells with stable shRNA-mediated FOXM1 knockdown (KD) were treated with doxorubicin alone or in combination with STL001 for 24 hrs and compared to parental cells under the same treatment conditions. In all cases, total protein samples were obtained from cells immediately after treatment and analyzed for FOXM1, cleaved caspase-3 levels via immunoblotting, β-actin was used as internal loading control (n=3).

[2] = target: T1, FOXM1 (Homo sapiens, UniProt Q08050); assay: FOXM1 protein levels by immunoblotting in solid cancer cell lines
T1 sequence (Q08050 1-763): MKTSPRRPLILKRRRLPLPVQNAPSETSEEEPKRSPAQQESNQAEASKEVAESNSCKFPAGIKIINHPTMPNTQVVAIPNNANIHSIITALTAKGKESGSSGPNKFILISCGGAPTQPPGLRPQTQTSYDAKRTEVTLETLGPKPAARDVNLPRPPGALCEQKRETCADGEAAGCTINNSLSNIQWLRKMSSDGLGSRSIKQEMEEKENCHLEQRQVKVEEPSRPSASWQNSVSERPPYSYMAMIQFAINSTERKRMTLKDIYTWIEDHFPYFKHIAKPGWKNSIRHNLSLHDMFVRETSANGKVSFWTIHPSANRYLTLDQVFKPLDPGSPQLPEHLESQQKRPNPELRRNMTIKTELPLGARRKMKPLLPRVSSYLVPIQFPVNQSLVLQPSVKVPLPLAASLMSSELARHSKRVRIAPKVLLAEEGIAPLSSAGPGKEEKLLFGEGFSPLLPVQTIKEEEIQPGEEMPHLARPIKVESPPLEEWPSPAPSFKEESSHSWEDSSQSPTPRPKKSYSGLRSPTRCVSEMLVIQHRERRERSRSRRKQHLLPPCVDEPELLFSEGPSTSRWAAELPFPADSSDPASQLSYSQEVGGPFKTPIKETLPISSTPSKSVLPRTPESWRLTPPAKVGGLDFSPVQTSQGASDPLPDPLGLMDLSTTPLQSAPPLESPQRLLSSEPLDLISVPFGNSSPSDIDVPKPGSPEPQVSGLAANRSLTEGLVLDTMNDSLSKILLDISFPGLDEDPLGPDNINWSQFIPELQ
Method: Cell culture: Human cell lines LNCaP and 22Rv1 (human prostate carcinoma), OVCAR8 and ES-2 (High-grade serous ovarian cancer, HGSOC), HCT-116 and HCT-FET (human colorectal carcinoma), HCC-1143 (triple negative breast cancer (TNBC), TAMR (Tamoxifen resistant MCF7) human breast cancer, were provided from various investigators. LNCaP and 22Rv1 cell lines were cultured in RPMI-1640 with 2 mM L-Glutamine (Gibco; Thermo Fisher Scientific, Waltham, MA, USA). HCC-1143 cell lines were cultured in Iscove's Modified Dulbecco Medium (IMDM) with 2 mM L-Glutamine (Gibco; Thermo Fisher Scientific). OVCAR-8, ES-2, HCT-116, and HCT-FET cell lines were cultured in Dulbecco's Modified Eagle Medium (DMEM) with 4.5 g/L glucose and 4 mM L-Glutamine (Gibco; Thermo Fisher Scientific). For all cell lines, the growth media was supplemented with 10% Foetal Bovine Serum (FBS), penicillin (100 U/mL), and 100 μg/mL streptomycin (Gibco; Thermo Fisher Scientific). TAMR cells were routinely cultured in DMEM/F12 medium without phenol red (Gibco; Thermo Fisher Scientific), containing 1% charcoal-striped FBS, 2.5 mM L-Glutamine (Thermo Fisher Scientific), 6 ng/mL insulin (Millipore Sigma) and 50 nM 4-hydroxytamoxifen (4-OHT; Millipore Sigma). All cell lines were grown and maintained at 37° C. in a humidified incubator with 5% CO2. Sub-confluent cultures (70-80%) were split 1:5 using 0.25% Trypsin/EDTA (Millipore Sigma).
Drug treatment of cultured cells: After harvesting, cells were counted in presence of Trypan Blue (Thermo Fisher Scientific) and seeded onto tissue culture plates to achieve ~50% confluency. The next day, treatment of cells was performed by aspirating the nonadherent cells and growth medium and replacing it with the fresh one containing selected concentrations of drugs. For Tamoxifen based studies, the nonadherent cells and growth media was aspirated and replaced with the DMEM supplemented with 4.5 g/L glucose and 4 mM L-Glutamine, 10% FBS, penicillin (100 U/mL), 100 μg/mL streptomycin, 10 nM estrogen, and selected concentrations of drugs. […] Post-treatment at selected times, the cells were harvested, washed with ice-cold PBS and used for protein or RNA purification as described below.
Protein immunoblotting: Total protein was extracted using ice-cold radio-immunoprecipitation assay (RIPA) buffer (Millipore Sigma) supplemented with Halt protease- and phosphatise-inhibitor cocktails (Fisher Scientific), 2 mM sodium orthovanadate (New England Biolabs, Inc., USA), and 5 mM sodium fluoride (Millipore Sigma) according to the manufacturer's protocol. Protein content in each sample was estimated using Bio-Rad Protein Assay (Bio-Rad, USA). Equal amounts of protein (20-30 μg) were separated on hand-cast SDS/PAGE (6-12%) mini-protein gels and transferred to 0.2 μm Immobilon-Psq polyvinylidene difluoride (PVDF) transfer membrane (Millipore Sigma). Membranes were blocked with 4% bovine serum albumin (BSA; Millipore Sigma) in TRIS-buffered saline (TBS) with 0.1% Tween-20 (TBS-T, Thermo Fisher Scientific) and probed overnight at 4° C. with the primary antibodies (FOXM1, Cell Signaling Technology (CST), Inc., USA; Cleaved Caspase-3, CST; β-actin, Thermo Fisher Scientific) diluted according to the manufacturer's protocol. […] After incubating membranes with the secondary antibodies, the membranes were then washed three times for 10 min each with TBST. Protein bands were developed using SuperSignal™ West Pico PLUS Chemiluminescent Substrate (Thermo Fisher Scientific) and detected using ChemiDoc Imaging System (Bio-Rad).

[3] = test system: FLO-1 cells; assay: Chemosensitization of esophageal adenocarcinoma cells; type: cell-based; settings: 24 hrs
Source text: In all cases, total protein samples were obtained from cells immediately after treatment and analyzed for FOXM1, cleaved caspase-3 levels via immunoblotting, β-actin was used as internal loading control (n=3). […] In all cases, total protein samples were obtained from cells immediately after treatment and analyzed for FOXM1 and cleaved caspase-3 levels via immunoblotting, β-actin was used as internal loading control.

[4] = test system: 22RV1, LNCaP cells
Method: as §1

[5] = test system: canonical FOXM1 target genes; assay: Real-time PCR of canonical FOXM1 target genes in primary AML mononuclear cells treated ex vivo; type: cell-based, human; settings: primary AML samples (n=5), 5 μM, 24 h
[6] = target: T1, FOXM1; assay: Immunohistochemistry for nuclear FOXM1 in primary AML samples treated ex vivo; type: cell-based; parameters: Total protein samples obtain from treated cells were analyzed for FOXM1 protein levels via immunoblotting; endogenous in cells; host or cells: KG-1, HL-60, K562, THP-1 leukemia cell lines; settings: primary AML samples (n=4), 24 h, 43% for DMSO, p=0.06
Method: FIGS. 13A-13H STL001 is a novel FOXM1 inhibitor that sensitizes leukemia cells to standard cytotoxic and bcl2 inhibitor therapies. FIG. 13A AML cell line KG-1 treated with precursor compound STL427944. FIG. 3B AML cell lines KG-1, HL-60, and K562 were treated with increasing concentrations of STL001 for 24 h. Total protein samples obtained from treated cells were analyzed for FOXM1 protein levels using immunoblotting; β-actin was used as the internal loading control. FIG. 13C KG-1, HL-60, and K562 cells were treated with indicated concentrations of venetoclax and STL001 alone or in combination for 24 h. FIG. 13D KG-1, HL-60, and K562 cells were treated with indicated concentrations of cytarabine and STL001 alone or in combination for 24 h. […] Total protein samples obtained from treated cells were analyzed for FOXM1 protein levels via immunoblotting; β-actin was used as an internal loading control. […] Slides were scanned on an Aperio AT2 brightfield scanner and images were analyzed using HALO 2.0 software. […]
In addition, primary AML samples (n=4) were treated ex vivo with STL001 and slides were scanned on an Aperio AT2 brightfield scanner and images were analyzed using HALO 2.0 software. The % of nuclei staining positive for FOXM1 was calculated per cell and averaged per slide to analyze FOXM1 protein expression and localization. […]

[7] = test system: HCC-1143 cells; settings: HCC-1143 FOXM1-KD, doxorubicin
Method: as §1
Stable FOXM1-expression knockdown in cancer cell: Cells were seeded on commercially available 12-well tissue culture plates to achieve ~40% confluency. […] Transduced cells were selected by their cultivation with puromycin (1.0 μg/mL) for 10 days and then maintained without puromycin as described above.

## O=C(Oc1cccc(-c2ccn(-c3nc(Nc4ccccc4)nc(N4CCOCC4)n3)n2)c1)c1ccco1 [STL001]
[1]
  cytotoxic effects (caspase-3 cleavage, cell viability) in combination with tamoxifen: drastically enhances the cytotoxic effects of tamoxifen therapy
[2]; HCC-1143
  FOXM1 level in combination with cisplatin or doxorubicin: efficiently prevents cisplatin or doxorubicin chemotherapy induced FOXM1 upregulation
[2]; HCT-116 and HCT-FET
  FOXM1 levels in combination with 5′FU: remarkably decreased 5′FU-induced FOXM1 levels
[2]; OVCAR-8, ES-2, HCT-116, HCT-FET, TAM-R, HCC-1143, 22RV1, LNCaP, tested at 1, 5, 10 μM
  concentration giving reduction of cellular levels of FOXM1 protein: 1 µM
[2]; OVCAR-8, ES-2, 24 hrs
  FOXM1 protein levels in combination with doxorubicin: efficiently prevented FOXM1 activation
[2]; TAMR cells
  FOXM1 level in combination with tamoxifen: efficiently prevents tamoxifen induced FOXM1 upregulation
[2]; breast, colorectal, esophageal and ovarian cancer cells
  FOXM1 expression: demonstrably lowers FOXM1 expression
[2]; solid cancer cell lines
  efficiency in reducing cellular FOXM1 activity compared to STL427944: ~ 25 times
[3]
  sensitization to Cisplatin, 5′FU, Paclitaxel, Irinotecan: sensitizes esophageal adenocarcinoma cells (FLO-1) to conventional chemotherapeutic drugs
[4]
  cytotoxic effects (caspase-3 cleavage) in combination with taxol: enhanced the cytotoxic effects of taxol-therapy
[5]
  expression of FOXM1 transcriptional targets AURKB and CDC25B: significantly suppressed expression
  expression of PLK1 and FOXM1: downregulation
[6]
  % of nuclei expressing FOXM1 after treatment: 29%
[7]
  sensitization effect in FOXM1 deficient cells: absent

From patent US20260217691A1, “FOXM1 INHIBITORS AND THEIR USE IN TREATING CANCERS” (THE BOARD OF TRUSTEES OF THE UNIVERSITY OF ILLINOIS, priority 2022, published 2026)
